Assay results published in PubChem BioAssay AID330 (DTP/NCI, 2004).
“And” between values parts separate entries of the source, which are not always exact repeats. Equal entries are not always repeated. Inconclusive results and toxic doses are left out. The calls were made as follows: active = survival T/C of 150% or more; inactive = T/C below 125% in these data.

System: P388 leukemia ip, CD2F1 mice, survival T/C
Assay: NCI In Vivo Anticancer Drug Screen. Data for tumor model P388 Leukemia (intraperitoneal) in CD2F1 (CDF1) mice
Conditions: endpoint: median survival time, higher = longer survival
Method in brief: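 Mice carrying the transplanted tumor received test compound or vehicle. Survival was recorded in each group, and the value is the treated-group measurement divided by that of the vehicle-treated control group.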

[1] = dose: 60.0 mg/kg/injection, schedule: Q01DX005 (ip), vehicle: saline with Tween-80
[2] = dose: 120.0 mg/kg/injection, schedule: Q01DX005 (ip), vehicle: saline with Tween-80
[3] = dose: 240.0 mg/kg/injection, schedule: Q01DX005 (ip), vehicle: saline with Tween-80
[4] = dose: 50.0 mg/kg/injection, schedule: Q01DX005 (ip), vehicle: saline with Tween-80
[5] = dose: 100.0 mg/kg/injection, schedule: Q01DX005 (ip), vehicle: saline with Tween-80
[6] = dose: 200.0 mg/kg/injection, schedule: Q01DX005 (ip), vehicle: saline with Tween-80

Measured: T/C

O=c1[nH]c(=O)n(C2OC(CO)C(O)C2O)cc1Br (centres undefined)
inactive: dose: 50.0 mg/kg/injection, schedule: Q01DX005 (ip), vehicle: saline 97 % of control | dose: 100.0 mg/kg/injection, schedule: Q01DX005 (ip), vehicle: saline 101 % of control | dose: 200.0 mg/kg/injection, schedule: Q01DX005 (ip), vehicle: saline 102 % of control

Cc1ccc(OP(=O)(Oc2ccc(C)cc2)Oc2ccc(C)cc2)cc1.Cc1ccc(OP(=O)(Oc2ccc(C)cc2)Oc2ccc(C)cc2)cc1.[Cl][Cr]([Cl])[Cl]
inactive: dose: 100.0 mg/kg/injection, schedule: Q01DX001 (ip), vehicle: Klucel (hydroxypropylcellulose) (HPC) 100 % of control | dose: 200.0 mg/kg/injection, schedule: Q01DX001 (ip), vehicle: Klucel (hydroxypropylcellulose) (HPC) 95 % of control | dose: 400.0 mg/kg/injection, schedule: Q01DX001 (ip), vehicle: Klucel (hydroxypropylcellulose) (HPC) 99 % of control

COc1ccc2[nH]c(C)cc2c1CN
inactive: dose: 3.12 mg/kg/injection, schedule: Q01DX009 (ip), vehicle: saline 113 % of control | dose: 6.25 mg/kg/injection, schedule: Q01DX009 (ip), vehicle: saline 101 % of control | dose: 12.5 mg/kg/injection, schedule: Q01DX009 (ip), vehicle: saline 112 % of control

O=C1OC(C2OC(=O)C(=O)C2C2CCCCCCC2=O)C(C2CCCCCCC2=O)C1=O (centres undefined)
inactive: [1] 102 % of control | [2] 95 % of control | [3] 100 % of control

CC1(C)OC2OC(COC(=O)c3ccccc3)C(OS(C)(=O)=O)C2O1 (centres undefined)
inactive: [4] 103 % of control | [5] 100 % of control | [6] 102 % of control

CC(=O)OC(CC(=O)CC(O)(C(F)(F)F)C(F)(F)F)(C(F)(F)F)C(F)(F)F
inactive: dose: 6.25 mg/kg/injection, schedule: Q04DX003 (ip), vehicle: saline 104 % of control | dose: 12.5 mg/kg/injection, schedule: Q04DX003 (ip), vehicle: saline 90 % of control

C(=N\Nc1nnc2c(n1)[nH]c1ccccc12)/c1ccccc1
inactive: dose: 100.0 mg/kg/injection, schedule: Q04DX002 (ip), vehicle: saline with Tween-80 89 % of control | dose: 200.0 mg/kg/injection, schedule: Q04DX002 (ip), vehicle: saline with Tween-80 90 % of control | dose: 400.0 mg/kg/injection, schedule: Q04DX002 (ip), vehicle: saline with Tween-80 98 % of control

O=C(O)CCCC1CCCCC1.[Mn]
inactive: [4] 116 % of control | [5] 108 % of control | [6] 99 % of control

Cn1c(=O)c2nc(-c3cccc([N+](=O)[O-])c3)cnc2n(C)c1=O
inactive: dose: 100.0 mg/kg/injection, schedule: Q04DX002 (ip), vehicle: Klucel (hydroxypropylcellulose) (HPC) 89 % of control | dose: 200.0 mg/kg/injection, schedule: Q04DX002 (ip), vehicle: Klucel (hydroxypropylcellulose) (HPC) 95 % of control | dose: 400.0 mg/kg/injection, schedule: Q04DX002 (ip), vehicle: Klucel (hydroxypropylcellulose) (HPC) 100 % of control

CC(C)([CH2][Sn]([Cl])([CH2]C(C)(C)c1ccccc1)[O][Sn]([Cl])([CH2]C(C)(C)c1ccccc1)[CH2]C(C)(C)c1ccccc1)c1ccccc1
inactive: dose: 1.56 mg/kg/injection, schedule: Q01DX005 (ip), vehicle: Klucel (hydroxypropylcellulose) (HPC) 104 % of control and 97 % of control | dose: 3.12 mg/kg/injection, schedule: Q01DX005 (ip), vehicle: Klucel (hydroxypropylcellulose) (HPC) 99 % of control and 100 % of control and 109 % of control | dose: 6.25 mg/kg/injection, schedule: Q01DX005 (ip), vehicle: Klucel (hydroxypropylcellulose) (HPC) 100 % of control and 119 % of control and 96 % of control | dose: 12.5 mg/kg/injection, schedule: Q01DX005 (ip), vehicle: Klucel (hydroxypropylcellulose) (HPC) 100 % of control and 106 % of control

COc1cc2c(cc1OC)[C@H]1[C@H](C)c3ccc4c(c3CN1CC2)OCO4
inactive: dose: 12.5 mg/kg/injection, schedule: Q04DX002 (ip), vehicle: Klucel (hydroxypropylcellulose) (HPC) 97 % of control | dose: 25.0 mg/kg/injection, schedule: Q04DX002 (ip), vehicle: Klucel (hydroxypropylcellulose) (HPC) 95 % of control | dose: 50.0 mg/kg/injection, schedule: Q04DX002 (ip), vehicle: Klucel (hydroxypropylcellulose) (HPC) 103 % of control and 106 % of control

O=C1NCCCCCC1S(=O)c1ccccc1 (centres undefined)
inactive: [4] 103 % of control | [5] 96 % of control | [6] 101 % of control

COc1ccccc1/C(C)=N/O
inactive: [1] 100 % of control | [2] 95 % of control | [3] 103 % of control
